Paper PMC8459971, “Evaluation of the hepatotoxicity of the novel GPR40 (FFAR1) agonist CPL207280 in the rat and monkey” (PLoS ONE, 2021)
Where “and” joins values, the source holds several entries; their conditions need not be identical. Equal values may be shown once.

Legend:
BSEP = BSEP (Homo sapiens, UniProt O95342); assay: Vesicular transport inhibition assay, BSEP
[1] = Stability in microsomes, rat; format: in vitro ADME; conditions: for average DEG [%]: rat microsomes, with cofactors
Protocol: (§1) The final incubation volume was 500 μL. Two control compounds (verapamil and donepezil) were included for each microsomal species, along with the appropriate vehicle control. The reactions were terminated by transferring 50 μL of incubate to 100 μL methanol containing an internal standard (metoprolol) at appropriate time points (0, 10, 20, 40, 60, and 120 min for the test compound and 0, 5, 10, 20, 40, and 60 min for the control compounds). The termination plates were centrifuged at 4000 x g at 4°C for 30 min to precipitate the protein. The supernatants were then collected for analysis, and LC-MS/MS was used for detection purposes. The system consisted of an Acquity™ Binary Solvent Manager, Acquity™ 4-position heated column manager, 2777 Ultra High Pressure Autosampler, and a Xevo-TQ MS triple quadrupole mass spectrometer (Waters Ltd., Herts, UK). This process was carried out twice.

OAT1 = biological target: T1, OAT1 (Homo sapiens, UniProt Q4U2R8); assay: Uptake transporter inhibition assay, OAT1; conditions: for Accumulation (counts per minute; CPM) HEK293FT-MOCK / Accumulation (counts per minute; CPM) HEK293FT-OAT1: OAT1;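 further: HEK293FT cells expressing OAT1 or mock, uptake of radiolabeled probe substrate at 37 °C in HBSS pH 7.4 with test compound or solvent, cell lysate read by liquid scintillation counting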
T1 sequence (Q4U2R8 1-563): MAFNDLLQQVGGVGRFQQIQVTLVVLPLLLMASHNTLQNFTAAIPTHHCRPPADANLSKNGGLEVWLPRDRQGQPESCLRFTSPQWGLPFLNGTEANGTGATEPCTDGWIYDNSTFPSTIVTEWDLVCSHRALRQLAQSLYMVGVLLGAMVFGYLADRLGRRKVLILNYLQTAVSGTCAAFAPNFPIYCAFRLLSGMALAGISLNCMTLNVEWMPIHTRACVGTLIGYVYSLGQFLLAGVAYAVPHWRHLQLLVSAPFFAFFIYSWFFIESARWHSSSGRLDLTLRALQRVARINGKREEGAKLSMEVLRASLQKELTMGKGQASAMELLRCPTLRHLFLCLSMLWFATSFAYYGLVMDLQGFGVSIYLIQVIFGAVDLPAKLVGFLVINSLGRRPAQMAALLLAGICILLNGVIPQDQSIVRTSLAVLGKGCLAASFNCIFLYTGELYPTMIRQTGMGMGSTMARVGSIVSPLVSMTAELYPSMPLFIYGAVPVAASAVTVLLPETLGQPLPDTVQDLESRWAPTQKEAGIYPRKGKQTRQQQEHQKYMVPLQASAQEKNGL
Protocol: For the uptake transporter inhibition assay, cells were washed twice with 100 μL of the appropriate buffer (HK, pH 7.4) for OATP1B1, followed by HBSS (pH 7.4) for (NTCP, OAT1, OAT2v1, OATP1A2, and OATP1B3). Uptake experiments were carried out at 37 ± 1°C in 50 μL of the respective buffer containing the probe substrate and the compound or solvent. […] After the experiment, cells were washed twice with 100 μL of cold appropriate buffer and lysed with 50 μL of 0.1 M NaOH. Radiolabeled probe substrate transport was determined by measuring an aliquot (35 μL) from each well for liquid scintillation counting.

in vivo = conditions: for AUC(0-t): AUC24h (Mean); for AUC24h (Mean): both
[2] = Stability in microsomes, monkey; format: in vitro ADME; conditions: for average DEG [%]: monkey microsomes, with cofactors
Protocol: as §1

[3] = Rat (Sprague Dawley) microsomes, mean n = 2
[4] = Monkey (Cynomolgus) microsomes, mean n = 2

BSEP, sequence (O95342 whole entry): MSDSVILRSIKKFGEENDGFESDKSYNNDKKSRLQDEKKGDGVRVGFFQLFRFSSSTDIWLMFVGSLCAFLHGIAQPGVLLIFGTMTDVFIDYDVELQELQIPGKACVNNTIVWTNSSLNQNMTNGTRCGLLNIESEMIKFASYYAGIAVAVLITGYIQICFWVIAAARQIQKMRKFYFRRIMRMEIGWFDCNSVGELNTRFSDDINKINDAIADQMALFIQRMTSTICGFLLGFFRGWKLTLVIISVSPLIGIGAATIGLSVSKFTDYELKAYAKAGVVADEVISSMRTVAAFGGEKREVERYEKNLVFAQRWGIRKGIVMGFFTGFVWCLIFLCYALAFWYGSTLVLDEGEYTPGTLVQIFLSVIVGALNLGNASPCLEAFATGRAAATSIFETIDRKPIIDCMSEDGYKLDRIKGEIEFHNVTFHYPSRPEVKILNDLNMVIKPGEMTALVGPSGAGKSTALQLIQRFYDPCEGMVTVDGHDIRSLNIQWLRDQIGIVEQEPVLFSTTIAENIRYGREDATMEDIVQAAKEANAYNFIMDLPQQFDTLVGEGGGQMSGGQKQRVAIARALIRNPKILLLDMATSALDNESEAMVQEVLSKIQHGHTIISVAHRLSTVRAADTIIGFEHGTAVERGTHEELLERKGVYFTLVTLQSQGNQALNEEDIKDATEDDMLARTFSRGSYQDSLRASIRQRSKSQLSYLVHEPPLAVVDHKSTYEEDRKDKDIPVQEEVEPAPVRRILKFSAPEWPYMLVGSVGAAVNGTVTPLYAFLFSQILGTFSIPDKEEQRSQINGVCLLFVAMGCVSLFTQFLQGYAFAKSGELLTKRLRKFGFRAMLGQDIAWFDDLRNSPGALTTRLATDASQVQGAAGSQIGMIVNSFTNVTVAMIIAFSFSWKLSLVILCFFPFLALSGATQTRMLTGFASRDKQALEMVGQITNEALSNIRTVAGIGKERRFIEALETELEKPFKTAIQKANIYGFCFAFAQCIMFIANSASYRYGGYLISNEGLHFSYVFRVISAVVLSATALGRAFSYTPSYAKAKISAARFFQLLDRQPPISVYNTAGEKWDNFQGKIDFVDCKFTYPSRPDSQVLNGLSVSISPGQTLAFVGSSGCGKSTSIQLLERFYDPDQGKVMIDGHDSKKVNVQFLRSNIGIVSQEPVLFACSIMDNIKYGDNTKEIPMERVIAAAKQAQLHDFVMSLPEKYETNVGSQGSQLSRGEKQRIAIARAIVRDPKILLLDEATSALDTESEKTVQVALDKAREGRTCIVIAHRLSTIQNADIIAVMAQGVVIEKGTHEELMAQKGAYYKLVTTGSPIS

CC#C[C@@H](CC(=O)O)c1ccc(OCC(C)=C(C)C)cc1 [CPL207280]
Accumulation (counts per minute; CPM) HEK293-BSEP (BSEP; conc 0.41 µM): 13312 CPM and 13786 CPM and 14638 CPM | Accumulation (counts per minute; CPM) HEK293-MOCK (BSEP; conc 0.41 µM): 373 CPM and 338 CPM and 317 CPM | Accumulation (counts per minute; CPM) HEK293-BSEP (BSEP; conc 1.23 µM): 14288 CPM and 14991 CPM and 14336 CPM | Accumulation (counts per minute; CPM) HEK293-MOCK (BSEP; conc 1.23 µM): 402 CPM and 297 CPM and 306 CPM | Accumulation (counts per minute; CPM) HEK293-BSEP (BSEP; conc 3.70 µM): 14804 CPM and 15510 CPM and 14684 CPM | Accumulation (counts per minute; CPM) HEK293-MOCK (BSEP; conc 3.70 µM): 350 CPM and 288 CPM and 349 CPM | Accumulation (counts per minute; CPM) HEK293-BSEP (BSEP; conc 11.11 µM): 14585 CPM and 13490 CPM and 14701 CPM | Accumulation (counts per minute; CPM) HEK293-MOCK (BSEP; conc 11.11 µM): 382 CPM and 355 CPM and 370 CPM | Accumulation (counts per minute; CPM) HEK293-BSEP (BSEP; conc 33.33 µM): 14312 CPM and 13194 CPM and 13689 CPM | Accumulation (counts per minute; CPM) HEK293-MOCK (BSEP; conc 33.33 µM): 426 CPM and 364 CPM and 386 CPM | Accumulation (counts per minute; CPM) HEK293-BSEP (BSEP; conc 100 µM): 10784 CPM and 11964 CPM and 11554 CPM | Accumulation (counts per minute; CPM) HEK293-MOCK (BSEP; conc 100 µM): 273 CPM and 371 CPM | half-life at 3 μM [1, 3]: 69 min | microsomal CLint at 3 μM [1, 3]: 21.1 µL/min/mg | average DEG [%] ([1]; 0 min): 100.0% | average DEG [%] ([1]; 20 min): 80.9% | average DEG [%] ([1]; 40 min): 64.9% | average DEG [%] ([1]; 60 min): 55.0% | IC50 (OAT1): 245 µM | fold less inhibitory potency than TAK-875, OAT1 (OAT1): at least 10 fold | Accumulation (counts per minute; CPM) HEK293FT-MOCK (OAT1; conc 0.10 µM): 50 CPM and 53 CPM | Accumulation (counts per minute; CPM) HEK293FT-OAT1 (OAT1; conc 0.10 µM): 3966 CPM and 4397 CPM | Accumulation (counts per minute; CPM) HEK293FT-MOCK (OAT1; conc 1.00 µM): 48 CPM and 53 CPM | Accumulation (counts per minute; CPM) HEK293FT-OAT1 (OAT1; conc 1.00 µM): 3796 CPM and 3875 CPM | Accumulation (counts per minute; CPM) HEK293FT-MOCK (OAT1; conc 3.00 µM): 43 CPM | Accumulation (counts per minute; CPM) HEK293FT-OAT1 (OAT1; conc 3.00 µM): 3567 CPM and 3805 CPM | Accumulation (counts per minute; CPM) HEK293FT-OAT1 (OAT1; conc 10.00 µM): 3588 CPM and 3708 CPM | Accumulation (counts per minute; CPM) HEK293FT-MOCK (OAT1; conc 30.00 µM): 36 CPM and 51 CPM | Accumulation (counts per minute; CPM) HEK293FT-OAT1 (OAT1; conc 30.00 µM): 3509 CPM and 3520 CPM | Accumulation (counts per minute; CPM) HEK293FT-MOCK (OAT1; conc 100.00 µM): 35 CPM and 46 CPM | Accumulation (counts per minute; CPM) HEK293FT-OAT1 (OAT1; conc 100.00 µM): 2841 CPM and 2828 CPM | Accumulation (counts per minute; CPM) HEK293FT-MOCK (OAT1; conc 300.00 µM): 36 CPM and 54 CPM | Accumulation (counts per minute; CPM) HEK293FT-OAT1 (OAT1; conc 300.00 µM): 1655 CPM and 1827 CPM | Accumulation in rat plasma after repeat dose (in vivo): No | Cmax at 14 days (in vivo; both sexes, Wistar Han, rat, 1200 mg/kg, Cmax): 250 µg/mL | Cmax (in vivo; both sexes, Wistar Han, rat, po, 150 mg/kg, Cmax): 125 µg/mL | AUC(0-t) (in vivo; both sexes, Wistar Han, rat, po, 300 mg/kg/day): 2350 µg·h/mL | Cmax (in vivo; both sexes, Wistar Han, rat, po, 300 mg/kg/day, Cmax (Mean)): 227 µg/mL | AUC(0-t) (in vivo; both sexes, Wistar Han, rat, po, 600 mg/kg/day): 2920 µg·h/mL | Cmax (in vivo; both sexes, Wistar Han, rat, po, 600 mg/kg/day, Cmax (Mean)): 257 µg/mL | Cmax (in vivo; both sexes, Wistar Han, rat, po, 1200 mg/kg, Cmax): 222 µg/mL | AUC (in vivo; both sexes, Wistar Han, rat, po, 1200 mg/kg, exposure - AUC): 2590 µg·h/mL | AUC24h (Mean) (in vivo; Wistar Han, rat, po, 300 mg/kg/day): 1605030 ng x hr/mL | AUC24h (Mean) (in vivo; Wistar Han, rat, po, 600 mg/kg/day): 2156620 ng x hr/mL | half-life at 3 μM [2, 4]: 23 min | microsomal CLint at 3 μM [2, 4]: 60.9 µL/min/mg | average DEG [%] ([2]; 0 min): 100.0% | average DEG [%] ([2]; 20 min): 64.8% | average DEG [%] ([2]; 40 min): 34.1%
